# Reference: patent publication US9458176B2, “Tetrahydroimidazo(1,5-D)[1,4]oxazepine derivative” (Eisai R&D Management Co., Ltd., priority 2013, dated 2016)
# Biological target: human mGluR2 (Homo sapiens (Human), UniProt Q14416)
# Test: [35S]GTPγS binding assay (Affinity to mGluR2)
# Assay type: biochemical
# Settings: cell membrane fraction of HEK293 cells stably expressing human mGluR2, glutamic acid 10 μM
# Method in brief: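 Membranes from HEK293 cells stably co-expressing human mGluR2 and SLC1A3 (1.8–3 μg protein) preincubated with compound 30 min at RT, then stimulated with 10 μM glutamate 15 min; [35S]GTPγS (0.8 kBq) with WGA-SPA beads 1 h, buffer with 3 μM GDP, 100 mM NaCl, 1 mM MgCl2. IC50 from inhibition of glutamate-specific binding.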
# [1] = inhibition of specific [35S]GTPγS binding
# Sequence of human mGluR2 (Q14416 19-872): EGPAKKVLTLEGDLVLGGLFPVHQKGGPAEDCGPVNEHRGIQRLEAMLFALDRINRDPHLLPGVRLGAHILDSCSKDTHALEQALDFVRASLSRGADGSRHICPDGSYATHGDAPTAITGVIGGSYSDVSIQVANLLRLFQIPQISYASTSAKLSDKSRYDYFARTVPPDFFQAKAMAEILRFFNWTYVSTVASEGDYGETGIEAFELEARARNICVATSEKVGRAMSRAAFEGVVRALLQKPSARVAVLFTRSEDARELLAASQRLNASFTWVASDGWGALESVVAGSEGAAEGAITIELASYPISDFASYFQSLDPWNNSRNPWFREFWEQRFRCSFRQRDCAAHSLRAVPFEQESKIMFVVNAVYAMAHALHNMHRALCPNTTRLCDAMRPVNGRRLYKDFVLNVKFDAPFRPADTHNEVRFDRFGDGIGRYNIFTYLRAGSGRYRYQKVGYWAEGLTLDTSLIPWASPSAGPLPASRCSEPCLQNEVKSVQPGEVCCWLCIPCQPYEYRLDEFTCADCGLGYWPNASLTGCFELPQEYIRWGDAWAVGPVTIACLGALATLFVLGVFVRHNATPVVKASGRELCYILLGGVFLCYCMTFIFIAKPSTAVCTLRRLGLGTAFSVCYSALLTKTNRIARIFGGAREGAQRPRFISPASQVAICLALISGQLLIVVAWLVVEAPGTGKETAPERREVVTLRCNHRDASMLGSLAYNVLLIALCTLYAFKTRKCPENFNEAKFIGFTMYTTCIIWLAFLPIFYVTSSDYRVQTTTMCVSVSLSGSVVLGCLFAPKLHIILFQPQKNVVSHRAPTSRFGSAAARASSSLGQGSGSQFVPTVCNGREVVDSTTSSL
IC50 [nM],IC50 [1] [nM],SMILES
11.5,,CC[C@@H]1Cn2c(-c3ccc(Cl)c(OC)c3)nc(-c3cc(C)nc(C)c3)c2CCO1 [Example 77]
,5.3,Cc1cc(-c2nc(-c3ccc(OC4CC4)c(Cl)c3)n3c2CCO[C@H](C)C3)cc(CF)n1 [Example 205]
12.7,,COc1cc(-c2nc(-c3cc(C)nc(CF)c3)c3n2C[C@@H](C)OCC3)ccc1C [Example 90]
,18.9,COc1cc(-c2nc(-c3ccnc(C)c3)c3n2C[C@@H](C)OCC3)ccc1OC(F)F [Example 149]
16.7,,Cc1cc(-c2nc(-c3ccc(Cl)c(C)c3)n3c2CCO[C@H](C)C3)cc(CF)n1 [Example 88]
,22.2,Cc1cc(-c2nc(-c3ccc(C(F)F)c(Cl)c3)n3c2CCO[C@H](C)C3)cc(C)n1 [Example 146]
15.7,,Cc1cc(-c2nc(-c3ccc(C(F)(F)F)c(Cl)c3)n3c2CCO[C@H](C)C3)cc(C)n1 [Example 129]
,11.9,Cc1cc(-c2nc(-c3ccc(OCCF)c(Cl)c3)n3c2CCO[C@H](C)C3)cc(C)n1 [Example 239]
,9.6,COc1cc(-c2nc(-c3cc(C)nc(C)c3)c3n2C[C@@H](C)OCC3)ccc1OC(F)F [Example 148]
1.7,,CCOc1cc(-c2nc(-c3ccnc(C)c3)c3n2C[C@@H](C)OCC3)ccc1C(F)(F)F [Example 83]
21.7,,Cc1cc(-c2nc(-c3ccc(Cl)cc3)n3c2CCO[C@H](C)C3)cc(C)n1 [Example 61]
,15.1,COc1cc(-c2nc(-c3cc(C)nc(C(F)F)c3)c3n2C[C@@H](C)OCC3)ccc1C(F)F [Example 189]
,45.5,Cc1cc(-c2nc(-c3ccc(F)c(Cl)c3)n3c2CCO[C@H](C)C3)ccn1 [Example 145]
2.7,,"Cc1cc(-c2nc(-c3ccc(OC(C)C)c(Cl)c3)n3c2CCO[C@H](C)C3)cc(C)n1 [Example 35, (R)-3-(3-chloro-4-isopropoxyphenyl)-1-(2,6-dimethylpyridin-4-yl)-6-methyl-5,6,8,9-tetrahydroimidazo[1,5-d][1,4]oxazepine]"
,42.2,COc1ccc(-c2nc(-c3cc(C)nc(C(F)F)c3)c3n2C[C@@H](C)OCC3)cc1Cl [Example 190]
12.6,,Cc1cc(-c2nc(-c3ccc(Cl)c(Cl)c3)n3c2CCO[C@H](C)C3)ccn1 [Example 66]
3.8,,"COc1cc(-c2nc(-c3ccnc(C)c3)c3n2C[C@@H](CF)OCC3)ccc1OC(F)(F)F [Example 17, (S)-6-(fluoromethyl)-3-(3-methoxy-4-(trifluoromethoxy)phenyl)-1-(2-methylpyridin-4-yl)-5,6,8,9-tetrahydroimidazo[1,5-d][1,4]oxazepine]"
,38.3,Cc1cc(-c2nc(-c3ccc(F)c(Cl)c3)n3c2CCO[C@H](CF)C3)ccn1 [Example 172]
242,,COc1cc(-c2nc(-c3ccnc(CO)c3)c3n2C[C@@H](C)OCC3)ccc1Cl [Example 47]
7.5,,"Cc1cc(-c2nc(-c3ccc(OC(F)F)c(Cl)c3)n3c2CCO[C@H](C)C3)ccn1 [Example 21, (R)-3-(3-chloro-4-(difluoromethoxy)phenyl)-6-methyl-1-(2-methylpyridin-4-yl)-5,6,8,9-tetrahydroimidazo[1,5-d][1,4]oxazepine]"
,7.9,CCOc1cc(-c2nc(-c3ccnc(C)c3)c3n2C[C@@H](C)OCC3)ccc1CC [Example 219]
119,,COc1ccc(-c2nc(-c3ccnc(C)c3)c3n2C[C@@H](C)OCC3)cc1F [Example 60]
4.5,,Cc1cc(-c2nc(-c3ccc(C(F)(F)F)c(C)c3)n3c2CCO[C@H](C)C3)cc(C)n1 [Example 124]
19.2,,COc1cc(-c2nc(-c3ccnc(C)c3)c3n2C[C@@H](C)OCC3)ccc1Cl [Example 114]
,44.6,Cc1cc(-c2nc(-c3ccc(F)c(OC(F)(F)F)c3)n3c2CCO[C@H](C)C3)ccn1 [Example 158]
33.3,,Cc1cc(-c2nc(-c3ccc(C(F)(F)F)c(Cl)c3)n3c2CCO[C@H](C)C3)ccn1 [Example 132]
29.4,,COc1cc(-c2nc(-c3ccnc(C)c3)c3n2C[C@@H](CF)OCC3)ccc1C [Example 72]
,20.2,Cc1cc(-c2nc(-c3ccc(C(F)(F)F)cc3)n3c2CCO[C@H](C)C3)cc(C)n1 [Example 142]
4.7,,Cc1cc(-c2nc(-c3ccc(OC(F)(F)F)c(C)c3)n3c2CCO[C@H](C)C3)cc(C)n1 [Example 67]

# Continued, compound first:
SMILES,IC50 [nM],IC50 [1] [nM]
"COc1cc(-c2nc(-c3cc(C)nc(C)c3)c3n2CCOCC3)ccc1Br [Example 4, 3-(4-bromo-3-methoxyphenyl)-1-(2,6-dimethylpyridin-4-yl)-5,6,8,9-tetrahydroimidazo[1,5-d][1,4]oxazepine]",31.9,
Cc1cc(-c2nc(-c3ccc(F)c(OC(F)(F)F)c3)n3c2CCOCC3)cc(C)n1 [Example 45],73.9,
Cc1cc(-c2nc(-c3ccnc(F)c3)c3n2CCOCC3)ccc1OC(F)(F)F [Example 115],61.7,
Cc1cc(-c2nc(-c3ccc(OC(F)(F)F)cc3)n3c2CCO[C@H](CF)C3)ccn1 [Example 70],25.5,
Cc1cc(-c2nc(-c3ccc(OC(F)F)c(CO)c3)n3c2CCO[C@H](C)C3)cc(C)n1 [Example 235],,21.7
Cc1cc(-c2nc(-c3ccc(Cl)c(Cl)c3)n3c2CCO[C@H](CF)C3)cc(C)n1 [Example 76],20.9,
Cc1cc(-c2nc(-c3ccc(Cl)c(C#N)c3)n3c2CCOCC3)cc(C)n1 [Example 111],25.2,
Cc1cc(-c2nc(-c3ccc(OC(F)(F)F)c(CF)c3)n3c2CCO[C@H](C)C3)cc(C)n1 [Example 231],,2.4
Cc1cc(-c2nc(-c3ccc(OC(F)(F)F)c(C#N)c3)n3c2CCO[C@H](CF)C3)cc(C)n1 [Example 195],,3.7
Cc1cc(-c2nc(-c3ccc(OC(F)(F)F)c(C)c3)n3c2CCO[C@H](CF)C3)cc(C)n1 [Example 161],,4
Cc1cc(-c2nc(-c3ccc(F)c(OCC(C)C)c3)n3c2CCOCC3)cc(C)n1 [Example 95],49.5,
Cc1cc(-c2nc(-c3ccc(OCC(F)F)c(Cl)c3)n3c2CCOCC3)cc(C)n1 [Example 218],,78.8
Cc1cc(-c2nc(-c3ccc(OC(F)(F)F)c(C)c3)n3c2CCOCC3)cc(CF)n1 [Example 198],,13.2
CCCOc1cc(-c2nc(-c3cc(C)nc(C)c3)c3n2CCOCC3)ccc1F [Example 96],59.8,
COc1cc(-c2nc(-c3cc(C)nc(C(F)F)c3)c3n2C[C@@H](CF)OCC3)ccc1C [Example 81],7.1,
Cc1cc(-c2nc(-c3ccc(C(F)(F)F)c(F)c3)n3c2CCO[C@H](C)C3)cc(C)n1 [Example 134],27.8,
Cc1cc(-c2nc(-c3ccc(OCC4CC4)c(Cl)c3)n3c2CCOCC3)cc(C)n1 [Example 217],,60.6
Cc1cc(-c2nc(-c3ccc(OC(F)(F)F)c(Cl)c3)n3c2CCOCC3)cc(C)n1 [Example 112],17.9,
"COc1cc(-c2nc(-c3cc(C)nc(C(F)F)c3)c3n2C[C@@H](CF)OCC3)ccc1C(F)(F)F [Example 31, (S)-1-(2-(difluoromethyl)-6-methylpyridin-4-yl)-6-(fluoromethyl)-3-(3-methoxy-4-(trifluoromethyl)phenyl)-5,6,8,9-tetrahydroimidazo[1,5-d][1,4]oxazepine]",7.9,
Cc1cc(-c2nc(-c3ccc(C(F)(F)F)c(F)c3)n3c2CCOCC3)cc(C)n1 [Example 107],54,
Cc1cc(-c2nc(-c3ccc(OC4CC4)c(Cl)c3)n3c2CCOCC3)cc(C)n1 [Example 135],36.9,
